Our source for the bioavailability values is patent US12036197B2, “Composition for improving bioavailability of drugs” (priority 2019, dated 2024).

The conditions of series [1]: rat, in vivo.
Details of series [2]: species or system SD rats. As to conditions: rat, in vivo. From the text: Laboratory Animals: Adult Male SD Rats.
The plasma was collected and subjected to quick freezing.

The next series can be described thus: in vivo. To be noted: male, SD, rat.

Where two headings read alike, the source gives them in different places. Where a SMILES comes first, the peptide text is derived from it. Bridges are numbered along the chain shown (N, C = ends). [ ]: non-standard residue; d: D form.

What is called bioavailability is dose-corrected exposure relative to a reference, in per cent. High values mean much systemic uptake, low ones little systemic uptake. The compound `CC[C@H](C)[C@H](NC(=O)[C@H](CO)NC(=O)[C@H](CCCCN)NC(=O)CNC(=O)[C@H](CCCCN)NC(=O)[C@H](CC(=O)O)NC(=O)[C@H](Cc1cnc[nH]1)NC(=O)[C@H](CC(C)C)NC(=O)[C@H](CC(C)C)NC(=O)[C@H](CCC(N)=O)NC(=O)[C@H](Cc1cnc[nH]1)NC(=O)[C@H](CCC(=O)O)NC(=O)[C@H](CO)NC(=O)[C@@H](NC(=O)[C@H](C)N)C(C)C)C(=O)N[C@@H](CCC(N)=O)C(=O)N[C@@H](CC(=O)O)C(=O)N[C@@H](CC(C)C)C(=O)N[C@@H](CCCNC(=N)N)C(=O)N[C@@H](CCCNC(=N)N)C(=O)N[C@@H](CCCNC(=N)N)C(=O)N[C@@H](CCC(=O)O)C(=O)N[C@@H](CC(C)C)C(=O)N[C@@H](CC(C)C)C(=O)N[C@@H](CCC(=O)O)C(=O)N[C@@H](CCCCN)C(=O)N[C@@H](CC(C)C)C(=O)N[C@@H](CC(C)C)C(=O)NC(C)(C)C(=O)N[C@@H](CCCCN)C(=O)N[C@@H](CC(C)C)C(=O)N[C@@H](Cc1cnc[nH]1)C(=O)N[C@H](C(=O)N[C@@H](C)C(N)=O)[C@@H](C)O` [Abaloparatide] yielded a bioavailability in series [1] of 1.66%.

With `CC[C@H](C)[C@@H]1NC(=O)[C@H](CCCNC(=N)N)NC(=O)[C@H](CC(=O)O)NC(=O)[C@H](CCSC)NC(=O)[C@H](CCCCN)NC(=O)[C@H](CCCNC(=N)N)NC(=O)CNC(=O)[C@H](Cc2ccccc2)NC(=O)[C@@H](NC(=O)CNC(=O)[C@H](CO)NC(=O)CNC(=O)[C@H](CCC(N)=O)NC(=O)[C@@H](NC(=O)[C@H](CCSC)NC(=O)[C@H](CCCCN)NC(=O)[C@@H]2CCCN2C(=O)[C@@H](N)CO)C(C)C)CSSC[C@@H](C(=O)N[C@@H](CCCCN)C(=O)N[C@H](C(=O)N[C@@H](CC(C)C)C(=O)N[C@@H](CCCN=C(N)N)C(=O)N[C@@H](CCCN=C(N)N)C(=O)N[C@@H](Cc2cnc[nH]2)C(=O)O)C(C)C)NC(=O)CNC(=O)[C@H](CC(C)C)NC(=O)CNC(=O)[C@H](CO)NC(=O)[C@H](CO)NC(=O)[C@H](CO)NC(=O)[C@H](CO)NC1=O` [Nesiritide], the bioavailability in series [2] is 1.22%.

With `CC(C)[C@@H]1NC(=O)[C@H](CCCCN)NC(=O)[C@@H](Cc2c[nH]c3ccccc23)NC(=O)[C@H](Cc2ccc(O)cc2)NC(=O)[C@@H](NC(=O)[C@H](N)Cc2ccccc2)CSSC[C@@H](C(=O)N[C@@H](Cc2c[nH]c3ccccc23)C(N)=O)NC1=O` [Vapreotide] (H-[dF]CY[dW]KVCW-NH2; disulfide 2-7), in the series “in vivo”, the bioavailability was 1.69%.
